In brackets after ≈: the same amount, converted by molar mass. Where two headings read alike, the source gives them in different places.
Key:
[1] = system: Staphylococcus aureus 209P; assay: Minimum inhibitory concentration, serial dilution method, Brain Heart Infusion broth; format: cell-based; conditions: Staphylococcus aureus, 209P, 24 h, read-out: Minimum Inhibitory Concentration
[2] = system: Staphylococcus aureus Terajima; assay: Minimum inhibitory concentration, serial dilution method; format: cell-based; conditions: Staphylococcus aureus, 24 h, read-out: Minimum Inhibitory Concentration
[3] = system: Staphylococcus aureus Smith; assay: as above; format: cell-based; conditions: Staphylococcus aureus, 24 h, read-out: Minimum Inhibitory Concentration
[4] = system: Staphylococcus albus 1200A; assay: as above; format: cell-based; conditions: Staphylococcus, 1200A, 24 h, read-out: Minimum Inhibitory Concentration
[5] = system: Streptococcus faecalis ATCC 8043; assay: as above; format: cell-based; conditions: Enterococcus faecalis, ATCC8043, 24 h, read-out: Minimum Inhibitory Concentration
[6] = system: Streptococcus hemolyticus Cook; assay: as above; format: cell-based; conditions: Streptococcus pyogenes, 24 h, read-out: Minimum Inhibitory Concentration
[7] = system: Streptococcus hemolyticus D-90; assay: as above; format: cell-based; conditions: Streptococcus pyogenes, D90, 24 h, read-out: Minimum Inhibitory Concentration
[8] = system: Streptococcus pyogenes D-58; assay: as above; format: cell-based; conditions: Streptococcus pyogenes, D58, 24 h, read-out: Minimum Inhibitory Concentration
[9] = system: Diplococcus pneumoniae Type I; assay: as above; format: cell-based; conditions: Streptococcus pneumoniae, 24 h, read-out: Minimum Inhibitory Concentration
[10] = system: Diplococcus pneumoniae Type III; assay: as above; format: cell-based; conditions: Streptococcus pneumoniae, 24 h, read-out: Minimum Inhibitory Concentration
[11] = system: Bacillus subtilis PCI 219; assay: as above; format: cell-based; conditions: Bacillus subtilis, PCI219, 24 h, read-out: Minimum Inhibitory Concentration
[12] = system: Bacillus subtilis ATCC 6633; assay: as above; format: cell-based; conditions: Bacillus subtilis, ATCC6633, 24 h, read-out: Minimum Inhibitory Concentration
[13] = system: Bacillus anthracis No. 119; assay: microbe, parasite or virus in culture; format: cell-based; conditions: NO.119, 24 h, read-out: Minimum Inhibitory Concentration
[14] = system: Corynebacterium diphtheriae Type gravis; assay: Minimum inhibitory concentration, serial dilution method; format: cell-based; conditions: Corynebacterium diphtheriae, 24 h, read-out: Minimum Inhibitory Concentration
[15] = system: Corynebacterium diphtheriae Type intermedius; assay: as above; format: cell-based; conditions: Corynebacterium diphtheriae, 24 h, read-out: Minimum Inhibitory Concentration
Sarcina lutea = assay: as above; format: cell-based; conditions: Micrococcus luteus, 24 h, read-out: Minimum Inhibitory Concentration
[16] = Acute toxicity by oral administration to mice; conditions: mouse, in vivo, free base
[17] = system: Staphylococcus aureus 209P; conditions: 7th day, 10 mice per group

## CCC(=O)OC1CC(=O)OC(C)CC=CC=CC(O)C(C)CC(CC=O)C(OC2OC(C)C(OC3CC(C)(O)C(OC(=O)CC)C(C)O3)C(N(C)C)C2O)C1OC (stereo not shown) [SF-837 substance, reference compound]
[1]
  MIC: 0.78 µg/mL (≈ 0.958 µM)
[2]
  MIC: 1.56 µg/mL (≈ 1.92 µM)
[3]
  MIC: 0.19 µg/mL (≈ 0.233 µM)
[4]
  MIC: 0.78 µg/mL (≈ 0.958 µM)
[5]
  MIC: 1.56 µg/mL (≈ 1.92 µM)
[6]
  MIC: 0.09 µg/mL (≈ 0.111 µM)
[7]
  MIC: 1.56 µg/mL (≈ 1.92 µM)
[8]
  MIC: 0.09 µg/mL (≈ 0.111 µM)
[9]
  MIC: 0.04 µg/mL (≈ 0.0491 µM)
[10]
  MIC: 0.04 µg/mL (≈ 0.0491 µM)
[11]
  MIC: 0.78 µg/mL (≈ 0.958 µM)
[12]
  MIC: 1.56 µg/mL (≈ 1.92 µM)
[13]
  MIC: 0.78 µg/mL (≈ 0.958 µM)
[14]
  MIC: 0.19 µg/mL (≈ 0.233 µM)
[15]
  MIC: 0.19 µg/mL (≈ 0.233 µM)
Sarcina lutea
  MIC: 0.09 µg/mL (≈ 0.111 µM)
[16]
  LD50: 3200 mg/kg
[17]; 100 mg/kg oral
  Rate of surviving mice in each group of mice: 0/10
[17]; 200 mg/kg oral
  Rate of surviving mice in each group of mice: 6/10

— patent publication US4017607A
